Measurements as given in US10513523B2, “Imidazopyrazines and pyrazolopyrimidines and their use as AMPA receptor modulators” (Janssen Pharmaceutica NV, priority 2015, dated 2019).

Columns and labels:
[1] = target: GluA1o-γ8 (GRIA1o-CACNG8 fusion construct; TARP γ8 dependent AMPA receptor) (Homo sapiens (Human), UniProt P42261+Q8WXS5); experiment: Calcium flux assay (FLIPR), inhibition of glutamate response of GluA1o-γ8 channel; type: cell-based; settings: HEK293 cells stably expressing GRIA1o-CACNG8 fusion; 15 μM glutamate; pIC50 = negative log of IC50 in molar; read-out: GluR1-γ8 (pIC50) (converted)
Summary of the method: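 Potency is the midpoint of a four-parameter logistic fit to control-normalized FLIPR calcium responses elicited by 15 μM glutamate. Stable HEK293 cells carried a fused GluA1o-γ8 construct and were preincubated with compound and calcium dye in pH 7.4 HEPES buffer.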

[2] = tested on: endogenous γ8-containing AMPA receptor currents; experiment: Whole-cell electrophysiology on acutely-dissociated mouse hippocampal neurons; type: cell-based; settings: 10 mM glutamate, 500 ms, held at -60 mV
Description: The effects of selected compounds upon endogenous γ 8-containing AMPA receptor currents was evaluated using whole-cell electrophysiology on acutely-dissociated mouse hippocampal neurons. Hippocampus was chosen for this assay, since CACNG8 (the protein encoded by this gene is a type I transmembrane AMPA receptor regulatory protein i.e., TARP) is preferentially enriched in this brain region (Tomita et al. (2003). “Functional studies and distribution define a family of transmembrane AMPA receptor regulatory proteins.” J Cell Biol 161(4): 805-816.2003).
Hippocampi were dissected from C57black6 mice at 4-12 weeks postnatal, following the protocol described by Brewer (Brewer, G. J. (1997). “Isolation and culture of adult rat hippocampal neurons.” Journal of Neuroscience Methods 71(2): 143-155). The following is a brief summary of the procedure. Mice were asphyxiated with CO2 then decapitated. The brain was rapidly removed, then placed into ice-cold HABG medium. The recipe for HABG medium was: HibernateA supplemented with 2% B27 and 0.5 mM Glutamax (all reagents from Life Technologies). Hippocampi were micro-dissected from the brains, then washed with HABG without calcium (Hibernate A minus Calcium, BrainBits; 2% B27, Life Technologies; 0.5 mM glutamax, Life Technologies).
The hippocampi were then transferred to HABG without calcium, supplemented with 2 mg/mL papain (Worthington Biochemical). They were incubated at 30° C. on a roller for 40 min, then gently triturated with a fire-polished glass pipette. The supernatant containing dissociated neurons was collected, then centrifuged for 2 min at 200 g. The cell pellet was collected, and then resuspended in 8 mL of HABG. Live cells were counted, then plated onto 12 mm glass coverslips in HABG (2 mL) in 24-well plates at a density of 50-100 cells per coverslip. These cells were maintained at room temperature until use.
Whole-cell electrophysiology was performed using 1.5 mm diameter glass capillary tubes (World Precision Instruments TW150-4), pulled to a fine tip with a Sutter P-97 micropipette puller. The intracellular buffer was 90 mM KF, 30 mM KCl, 10 mM HEPES, and 5 mM EGTA, pH 7.4, 290mOs. The extracellular buffer was 135 mM NaCl, 4 mM KCl, 2 mM CaCl2, 1 mM MgCl2, 5 mM glucose, 10 mM HEPES, pH 7.4, 300 mOs. The open-tip resistances of the micropipettes using these solutions were 2-4 MΩ. Whole-cell recordings of neuron cell bodies were performed in voltage-clamp mode using an Axon Axopatch 200B amplifier. Whole-cell current was measured holding the interior of the cell at −60 mV, using a 5 kHz lowpass filter. The cells were continuously perfused through 7 mm square glass barrels using a solenoid-controlled solution switching device (Warner Instruments, PF-77B). The peak current in response to a 500 ms exposure to 10 mM glutamate every 5 seconds was measured, before and after exposure to test compound.
For analysis, the mean peak current of 5 traces in the presence of test compound was divided by the mean peak current of 5 traces prior to the addition of test compound. Compounds were tested at concentrations at least ten times higher than their estimated potency in the calcium flux assay, in order to ensure near-saturating occupancy of the receptor.

GluA1o-γ8 (GRIA1o-CACNG8 fusion construct; TARP γ8 dependent AMPA receptor), sequence (P42261 other isoform, or with tags, fused parts or gaps): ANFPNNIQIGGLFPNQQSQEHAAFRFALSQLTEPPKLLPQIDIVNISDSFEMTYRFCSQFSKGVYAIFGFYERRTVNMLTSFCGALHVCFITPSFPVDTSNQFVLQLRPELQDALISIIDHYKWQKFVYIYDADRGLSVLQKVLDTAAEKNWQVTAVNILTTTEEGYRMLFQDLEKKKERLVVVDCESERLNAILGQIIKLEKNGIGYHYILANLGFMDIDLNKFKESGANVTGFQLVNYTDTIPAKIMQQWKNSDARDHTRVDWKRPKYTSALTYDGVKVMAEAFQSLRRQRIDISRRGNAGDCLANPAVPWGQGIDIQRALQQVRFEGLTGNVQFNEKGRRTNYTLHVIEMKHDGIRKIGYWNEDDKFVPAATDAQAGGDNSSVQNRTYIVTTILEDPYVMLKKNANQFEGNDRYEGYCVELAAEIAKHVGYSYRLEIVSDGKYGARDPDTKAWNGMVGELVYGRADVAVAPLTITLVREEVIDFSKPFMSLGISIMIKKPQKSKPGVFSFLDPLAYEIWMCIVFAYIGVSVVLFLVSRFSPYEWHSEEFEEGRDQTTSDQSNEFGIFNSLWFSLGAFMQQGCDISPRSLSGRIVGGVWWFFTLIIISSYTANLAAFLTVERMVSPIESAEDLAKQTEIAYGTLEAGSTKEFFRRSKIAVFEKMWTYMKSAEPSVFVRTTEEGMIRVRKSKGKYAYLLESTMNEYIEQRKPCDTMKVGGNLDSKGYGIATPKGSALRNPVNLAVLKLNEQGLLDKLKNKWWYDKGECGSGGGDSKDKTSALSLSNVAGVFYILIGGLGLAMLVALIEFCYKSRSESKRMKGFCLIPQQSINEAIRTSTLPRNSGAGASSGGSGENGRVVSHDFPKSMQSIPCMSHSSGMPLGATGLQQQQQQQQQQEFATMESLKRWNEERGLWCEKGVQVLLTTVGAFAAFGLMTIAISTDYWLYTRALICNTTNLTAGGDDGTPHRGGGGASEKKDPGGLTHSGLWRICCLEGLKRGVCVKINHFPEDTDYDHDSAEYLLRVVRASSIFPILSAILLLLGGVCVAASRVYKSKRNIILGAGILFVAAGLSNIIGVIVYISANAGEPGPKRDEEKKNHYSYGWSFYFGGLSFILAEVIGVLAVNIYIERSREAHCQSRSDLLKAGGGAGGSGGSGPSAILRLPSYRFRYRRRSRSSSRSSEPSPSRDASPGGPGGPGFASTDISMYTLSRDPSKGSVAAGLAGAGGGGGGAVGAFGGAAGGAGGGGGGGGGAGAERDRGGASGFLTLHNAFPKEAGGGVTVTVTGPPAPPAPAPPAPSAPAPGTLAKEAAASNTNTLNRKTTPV

Row | IC50 [1] [nM] | Structure (SMILES) | peak current (% control) ([2]; 10 μM test compound) [%] | peak current (% control) ([2]; 0.1 μM test compound) [%] | peak current (% control) ([2]; 1 μM test compound) [%]
1 | 6.31 | CC(=O)N1CCN(c2nccn3c(-c4ccc(O)cc4)c(-c4ccc(F)cc4)nc23)CC1 [Example 1, 1-[4-[2-(4-Fluorophenyl)-3-(4-hydroxyphenyl)imidazo[1,2-a]pyrazin-8-yl]piperazin-1-yl]ethanone] | 81 | – | –
2 | 50.1 | Oc1ccc(-c2c(-c3ccc(F)cc3)nc3c(N4CC5(COC5)C4)nccn23)cc1 [Example 7, 4-[2-(4-Fluorophenyl)-8-(6-oxa-2-azaspiro[3.3]heptan-2-yl)imidazo[1,2-a]pyrazin-3-yl]phenol] | 55 | – | –
3 | 0.631 | Fc1ccc(-c2nc3c(N4CCOCC4)nccn3c2-c2ccc3[nH]ncc3c2)cc1 [Example 10, 4-[2-(4-Fluorophenyl)-3-(1H-indazol-5-yl)imidazo[1,2-a]pyrazin-8-yl]morpholine] | – | 64 | 74
4 | 0.398 | CC(=O)N1CCN(c2nccn3c(-c4ccc5c(c4)CC(=O)N5)c(-c4ccc(F)cc4)nc23)CC1 [Example 12, 5-[8-(4-Acetylpiperazin-1-yl)-2-(4-fluorophenyl)imidazo[1,2-a]pyrazin-3-yl]indolin-2-one] | – | 69 | –
5 | 1.26 | CC(=O)N1CCN(c2nccn3c(-c4ccc5c(c4)CC(=O)N5)c(Cc4ccccc4)nc23)CC1 [Example 17, 5-[8-(4-Acetylpiperazin-1-yl)-2-benzyl-imidazo[1,2-a]pyrazin-3-yl]indolin-2-one] | – | 68 | –
6 | 0.316 | O=C1Cc2cc(-c3c(-c4ccc(F)cc4)nc4c(N5CCC(O)CC5)nccn34)ccc2N1 [Example 37, 5-[2-(4-Fluorophenyl)-8-(4-hydroxy-1-piperidyl)imidazo[1,2-a]pyrazin-3-yl]indolin-2-one] | – | 66 | –
7 | 12.6 | Oc1ccc(-c2c(-c3ccc(F)cc3)nc3c(N4CCOCC4)nccn23)cc1 [Example 83, 4-[2-(4-Fluorophenyl)-8-morpholino-imidazo[1,2-a]pyrazin-3-yl]-phenol] | 78 | – | –
8 | 2.51 | CC(=O)N1CCN(c2nccn3c(-c4ccc5c(c4)CC(=O)N5)c(-c4ccc(C#N)cc4)nc23)CC1 [Example 107, 4-[8-(4-Acetylpiperazin-1-yl)-3-(2-oxoindolin-5-yl)imidazo[1,2-a]pyrazin-2-yl]benzonitrile] | – | 67 | –
